Data as given in patent US12544431B2, “Peptides for the treatment of cancer and/or metastasis” (BCN PEPTIDES, S.A., priority 2019, dated 2026).
Like-named read-outs stand apart in the source and are kept apart here. Marks after values point to notes of the source that are not given here. Values belong to the compound of their own block, whether it stands above or below them. *1 amine or outer side, *2 acyl side, *3 side chain or, on linkers, in order; H or OH if unused. Where a SMILES comes first, the peptide text is derived from it. Bridges are numbered along the chain shown (N, C = ends). Roman numbers before positions name the chains, in order. [ ]: non-standard residue; d: D form. The star is where a group is joined. Phe(2,4,6-Me3) = Cc1cc(C)c(C[C@H](N)C(=O)O)c(C)c1; X1 = Cc1cc(C)c(CC(N[*:1])C(=O)[*:2])c(C)c1; pGlu = O=C1CC[C@@H](C(=O)O)N1; Octanoyl = CCCCCCCC(=O)*

Experiments:
[1] = test system: RH30 rhabdomyosarcoma cells; experiment: Matrigel-coated transwell invasion assay, RH30 cells; type: cell-based; settings: % invasive cells vs non-treated control
Procedure: (§1) 10^5 RH30 or RD cells were plated in the upper chamber of a Matrigel-coated transwell (Corning) in 0.1 mL medium without FBS. Cells were previously incubated with different concentrations (0 nM, 100 nM, 200 nM, 500 nM and 1000 nM) of the peptides and peptide dimer for 48 hours, being also present in the medium during the cell invasion assay. In the lower chamber, 0.6 mL of medium with FBS was added. Cells were incubated at 37° ° C. for 24 hours.
(§2) After that, cells were fixed with 4% paraformaldehyde (Sigma) for 10 minutes, followed by washing with PBS. After removal of the Matrigel and remaining cells from the upper face of the membrane with a cotton swab, the cells present on the lower face were stained with a Hoechst dilution (Sigma) and were counted (5 fields for each well) with an inverted fluorescence microscope Nikon with a 10× objective. All experiments were made in triplicate. In Table 6 the % Invasiveness represents the mean percentage of invasive cells with respect to their controls.

[2] = In vitro stability, half-life in human plasma; type: in vitro ADME; settings: 90% human plasma, 37° C., RP-HPLC, read-out: t½ (hours) in human plasma (converted)
Procedure: The peptides and peptide dimer synthesized and prepared in accordance with Example 1 were dissolved in water at a concentration of 6 mg/mL and warmed up to 37° C.
Human plasma was obtained as a lyophilized solid (K3 EDTA Plasma, BBI Solutions, code S112-1), reconstituted with sterile 0.9% sodium chloride solution and stored at −20° C. Human plasma was thawed and incubated at 37° C. before use.
The peptides and peptide dimer were incubated in 90% human plasma at 37° C. for different times and then precipitated with two volume equivalents of methanol. The samples were cooled in an acetone-carbon dioxide bath for a few seconds and centrifuged for 12 minutes at 4° C. at approximately 10,000 rpm. The supernatant was filtered with a 0.45 μm PVDF filter and analyzed in triplicate by RP-HPLC using an isocratic method (Eluent A=0.1% TFA in water; Eluent B=0.07% TFA in ACN, Column=Kromasil C8, 100 Å, 5 μm, 250×4.6 mm, Flow=1 mL/min, Wavelength: 220 nm, Injection volume=20 μL, Temperature=60° C.). The disappearance of the compound was determined in relation to the area of the initial time to calculate its half-life.

[3] = test system: RD rhabdomyosarcoma cells; experiment: Matrigel-coated transwell invasion assay, RD cells; type: cell-based; settings: % invasive cells vs non-treated control
Procedure: as §1, §2

[4] = 500 nM peptide, listed as Octanoyl-SEQ ID NO: 5—NH2

half-life at 0.6 mg/mL [2]: 33.1 h
Compound: Cc1cc(C)c(C[C@H](NC(=O)[C@H](CCC(=O)O)NC(=O)[C@@H]2CCCN2C(=O)[C@H](CC(C)C)NC(=O)[C@H](CC(=O)O)NC(=O)[C@H](CSSC[C@H](NC(=O)[C@H](CO)NC(=O)[C@H](CC(N)=O)NC(=O)[C@H](CO)NC(=O)[C@H](CO)NC(=O)[C@H](CC(=O)O)NC(=O)[C@H](CCCNC(=N)N)NC(=O)[C@H](CCCCN)NC(=O)[C@@H]2CCC(=O)N2)C(=O)N[C@@H](CC(=O)O)C(=O)N[C@@H](CC(C)C)C(=O)N2CCC[C@H]2C(=O)N[C@@H](CCC(=O)O)C(=O)N[C@@H](Cc2c(C)cc(C)cc2C)C(=O)N[C@@H](CCCCN)C(N)=O)NC(=O)[C@H](CO)NC(=O)[C@H](CC(N)=O)NC(=O)[C@H](CO)NC(=O)[C@H](CO)NC(=O)[C@H](CC(=O)O)NC(=O)[C@H](CCCNC(=N)N)NC(=O)[C@H](CCCCN)NC(=O)[C@@H]2CCC(=O)N2)C(=O)N[C@@H](CCCCN)C(N)=O)c(C)c1 [(SEQ ID NO: 6-NH2)2 (disulfide bridge), (Pyr-Lys-Arg-Asp-Ser-Ser-Asn-Ser-Cys-Asp-Leu-Pro-Glu-Msa-Lys-NH2)2 (disulfide bridge)] (I: [pGlu]KRDSSNSCDLPE[Phe(2,4,6-Me3)]K-NH2 / II: [pGlu]KRDSSNSCDLPE[Phe(2,4,6-Me3)]K-NH2; disulfide I:9-II:9)
% Invasiveness RH30 ([1]; 100 nM peptide): 82.46* %
% Invasiveness RH30 ([1]; 100 nM peptide, listed as (SEQ ID NO: 6—NH2)2): significant reduction
% Invasiveness RH30 ([1]; 200 nM peptide): 70.84* %
% Invasiveness RH30 ([1]; 500 nM peptide): 78.26* %
% Invasiveness RH30 ([1]; 1000 nM peptide): 57.59* %
% Invasiveness RD ([3]; 500 nM peptide): 64.71%
% Invasiveness RD ([3]; 1000 nM peptide): 25.36* %
% Invasiveness RD ([3]; 1000 nM peptide, listed as (SEQ ID NO: 6—NH2)2): significant decrease

half-life at 0.6 mg/mL [2]: 0.23 h
Compound: CC(=O)N[C@@H](CCCCN)C(=O)N[C@@H](CCCNC(=N)N)C(=O)N[C@@H](CC(=O)O)C(=O)N[C@@H](CO)C(=O)N[C@@H](CO)C(=O)N[C@@H](CC(N)=O)C(=O)N[C@@H](CO)C(=O)N[C@@H](CS)C(=O)N[C@@H](CC(=O)O)C(=O)N[C@@H](CC(C)C)C(=O)N1CCC[C@H]1C(=O)N[C@@H](CCC(=O)O)C(=O)NC(Cc1c(C)cc(C)cc1C)C(=O)N[C@@H](CCCCN)C(N)=O (stereo partly drawn) [Ac-SEQ ID NO: 5-NH2, Ac-Lys-Arg-Asp-Ser-Ser-Asn-Ser-Cys-Asp-Leu-Pro-Glu-Msa-Lys-NH2] (Ac-KRDSSNSCDLPE[X1]K-NH2)
% Invasiveness RH30 ([1]; 100 nM peptide): 24.83* %
% Invasiveness RH30 ([1]; 100 nM peptide, listed as Ac-SEQ ID NO: 5—NH2): significant reduction
% Invasiveness RH30 ([1]; 500 nM peptide): 18.49* %
% Invasiveness RD ([3]; 100 nM peptide): 100.80%
% Invasiveness RD ([3]; 500 nM peptide): 35.59%

half-life at 0.6 mg/mL [2]: 0.15 h
Compound: CCCCCCCC(=O)N[C@@H](CCCCN)C(=O)N[C@@H](CCCNC(=N)N)C(=O)N[C@@H](CC(=O)O)C(=O)N[C@@H](CO)C(=O)N[C@@H](CO)C(=O)N[C@@H](CC(N)=O)C(=O)N[C@@H](CO)C(=O)N[C@@H](CS)C(=O)N[C@@H](CC(=O)O)C(=O)N[C@@H](CC(C)C)C(=O)N1CCC[C@H]1C(=O)N[C@@H](CCC(=O)O)C(=O)N[C@@H](Cc1c(C)cc(C)cc1C)C(=O)N[C@@H](CCCCN)C(N)=O [Octanoyl-SEQ ID NO: 5-NH2, Octanoyl-Lys-Arg-Asp-Ser-Ser-Asn-Ser-Cys-Asp-Leu-Pro-Glu-Msa-Lys-NH2] (Octanoyl-KRDSSNSCDLPE[Phe(2,4,6-Me3)]K-NH2)
% Invasiveness RH30 ([1]; 100 nM peptide): 120.81%
% Invasiveness RH30 ([1]; 500 nM peptide): 41.12* %
% Invasiveness RH30 [1, 4]: significant reduction
% Invasiveness RD ([3]; 100 nM peptide): 56.90%
% Invasiveness RD ([3]; 500 nM peptide): 14.16* %
% Invasiveness RD [3, 4]: significant decrease

half-life at 0.6 mg/mL [2]: 3.6 h
Compound: CCCCCCCC(=O)N[C@@H](CCCCN)C(=O)N[C@@H](CCCNC(=N)N)C(=O)N[C@@H](CC(=O)O)C(=O)N[C@@H](CO)C(=O)N[C@@H](CO)C(=O)N[C@@H](CC(N)=O)C(=O)N[C@@H](CO)C(=O)N[C@@H](CCSC)C(=O)N[C@@H](CC(=O)O)C(=O)N[C@@H](CC(C)C)C(=O)N1CCC[C@H]1C(=O)N[C@@H](CCC(=O)O)C(=O)NC(Cc1c(C)cc(C)cc1C)C(=O)N[C@@H](CCCCN)C(N)=O (stereo partly drawn) [Octanoyl-SEQ ID NO: 8-NH2, Octanoyl-Lys-Arg-Asp-Ser-Ser-Asn-Ser-Met-Asp-Leu-Pro-Glu-Msa-Lys-NH2] (Octanoyl-KRDSSNSMDLPE[X1]K-NH2)
% Invasiveness RH30 ([1]; 100 nM peptide): 88.38%
% Invasiveness RH30 ([1]; 200 nM peptide): 99.30%
% Invasiveness RH30 ([1]; 500 nM peptide): 71.92%
% Invasiveness RH30 ([1]; 1000 nM peptide): 74.06%
% Invasiveness RD ([3]; 100 nM peptide): 75.55%
% Invasiveness RD ([3]; 200 nM peptide): 113.22%
% Invasiveness RD ([3]; 500 nM peptide): 63.27%
% Invasiveness RD ([3]; 1000 nM peptide): 15.89* %
% Invasiveness RD ([3]; 1000 nM peptide, listed as Octanoyl-SEQ ID NO: 8—NH2): significant decrease

half-life at 0.6 mg/mL ([2]; human plasma (K3 EDTA)): 0.32 h
Compound: Ac-RDSSNSCDLPEF-NH2 [Ac-SEQ ID NO: 10-NH2, Ac-Arg-Asp-Ser-Ser-Asn-Ser-Cys-Asp-Leu-Pro-Glu-Phe-NH2, reference compound]
% Invasiveness RH30 ([1]; 100 nM peptide): 83.91%
% Invasiveness RH30 ([1]; 500 nM peptide): 113.68%
% Invasiveness RD ([3]; 100 nM peptide): 106.77%
% Invasiveness RD ([3]; 500 nM peptide): 59.90%
